Results taken from patent US9937198B2, “Multi-functional composition and preparation method and application thereof” (Suzhou Sciscape Bio-Pharmaceutical Technology Co., Ltd., priority 2013, dated 2018).
“And” between values parts separate entries of the source, which are not always exact repeats. Equal values may be shown once.

How the values were obtained:
human skin = assay: Determination of moisture content in human skin; format: in vivo
Text: 1. Subjects and Materials
One hundred and ten people were selected from the volunteers who participating in this test. They were females at the age of 30 to 55 with skin moisture content below 12%.
Solutions of Composition 1 to 7 prepared in this example were used except that the sterile water for medical use was replaced with warm water.
By skin moisture content, the subjects were randomly divided into 11 groups, i.e., a blank control group, administration groups 1 to 7 and negative control groups 1 to 3. The subjects in administration groups 1 to 7 respectively took 200 mL of the solution of Compositions 1 to 7 twice a day at 9 am and 9 pm while the subjects in the blank control group took 200 mL of warm water at the same time. In addition, the subjects in negative control groups 1 to 3 respectively took 200 mL of the solution of trehalose (0.15 g/mL), 200 mL of the solution of validamycin (0.3 mg/mL) and 200 mL of the solution of algal polysaccharides (0.15 g/mL). The administration lasted for 30 days. Skin moisture content was determined before administration and after administration. The determination was conducted in a spacious and well ventilated examination room. When the subjects were calm, the location to be determined was cleaned with sterile cotton ball soaked with distilled water. Fifteen minutes after the location was wiped dry, the skin moisture content was determined by skin moisture tester under the trademark of “KAKUSAN”.

normal mice [1] = assay: Defecation quantity and body weight changes in normal mice (sliming); format: in vivo
Procedure: Male ICR mice, 8 weeks old and 20±2 g in body weight, were purchased from Beijing HFK Bioscience Co., Ltd.
The solutions of Compositions 1 to 7 prepared in this example were used.
After the mice were fed normally for 3 days, they were given no food but water for 4 h. By body weight, they were randomly divided into 11 groups, i.e., a blank control group, administration groups 1 to 7 and negative control groups 1 to 3. The mice in administration groups 1 to 7 were intragastrically administered with the solutions of Compositions 1 to 7 respectively at a dose of 13.3 mL/kg body weight. On the other hand, the mice in the blank control group were intragastrically given sterile water for medical use at a dose of 13.3 mL/kg body weight. Further, the mice in negative control groups 1 to 3 were intragastrically given the solution of trehalose (0.15 g/mL), the solution of validamycin (0.3 mg/mL) and the solution of algal polysaccharides (0.15 g/mL) respectively at a dose of 13.3 mL/kg body weight. At 20 to 30 min post administration, mice were allowed to eat freely and the defecation quantity in the mice from each group before and after administration (average feces quantity of the mice in each group), the percentages of defecation quantities before and after administration based on the total defecation quantities throughout the experiment and the body weight were recorded.

diabetic mice = assay: Reduction of blood glucose in streptozotocin diabetic mice; format: in vivo; settings: for Blood glucose level at different time points after administration: 13.3 mL/kg intragastric at 9 am and 9 pm every day; for Blood glucose level before administration: baseline, STZ diabetic mice
Procedure: Male ICR mice, 8 weeks old, 20±2 g in body weight, were purchased from Beijing HFK Bioscience Co., Ltd.
Also, the solutions of Compositions 1-7 were used in this Example.
I. Modeling: Before experiment started, a 0.1 mol/L sodium citrate buffer (pH4.5) was prepared. It was sterilized in an autoclave and then stored in a refrigerator at 4° C. Before the modeling began, this sodium citrate buffer was used to freshly prepare a 10 mg/mL solution of streptozotocin (STZ) in an ice bath. The mice were fed normally for 3 days, and then they were intraperitoneally administered with the freshly prepared STZ solution at a dose of 45 mg/kg for 5 consecutive days once a day.
II. Treatment: After the model was successfully established, the mice had not been administered with streptozotocin solution were arranged in a group, i.e., the normal group, and normally fed. The diabetic mice were randomly divided into 11 groups depending on blood glucose level, the groups being a model group, administration groups 1 to 7 and negative control groups 1 to 3. The mice in administration groups 1 to 7 were respectively intragastrically given the solution of Composition 1 to 7 prepared in this Example at a dose of 13.3 mL/kg body weight. The mice in the model group were intragastrically given sterile water for medical use at a dose of 13.3 mL/kg body weight. The mice in negative control groups 1 to 3 were respectively intragastrically administered with the solution of trehalose (0.15 g/mL), the solution of validamycin (0.3 mg/mL) and the solution of algal polysaccharides (0.15 g/mL) at a dose of 13.3 mL/kg body weight. The administration was conducted at 9 am and 9 pm every day, and blood glucose level was checked by Roche blood glucose meter once every other week for 5 weeks.

healthy volunteers = assay: Effect on blood glucose level in normal people; format: in vivo, human; settings: for effect on blood glucose level in normal people / Blood glucose level after administration: 200 mL oral; for Blood glucose level after administration / Blood glucose level before administration: individual healthy volunteers; for Blood glucose level before administration: fasting baseline
Procedure: Six healthy volunteers were fasted overnight and then were measured for fasting blood glucose. Thereafter, they were orally administered with 200 mL of the solution of Composition 1, or 200 mL of the solution of trehalose (0.15 g/mL), or 200 mL of the solution of validamycin (0.3 mg/mL), or 200 mL of distilled water, as stated in Table 3.2. The blood glucose level in every volunteer was tested before administration and 30 min, 60 min and 120 min post administration.

normal mice [2] = assay: Loaded swimming in normal mice; format: in vivo; settings: 2 g weight on tail, 20 min after 13.3 mL/kg intragastric
Text: Female ICR mice, 8 weeks old and 20±2 g in body weight, were purchased from Beijing HFK Bioscience Co., Ltd.
The solutions of Composition 1 to 7 prepared in this example were used.
After the mice were fed normally for 3 days, they were randomly divided into 11 groups by body weight, i.e., a blank control group, administration groups 1 to 7 and negative control groups 1 to 3. The mice in administration groups 1 to 7 were intragastrically administered with the solution of Compositions 1 to 7 respectively a dose of 13.3 mL/kg body weight while the mice in the blank control group were intragastrically given sterile water for medical use at a dose of 13.3 mL/kg body weight. The mice in negative control groups 1 to 3 were intragastrically given the solution of trehalose (0.15 g/mL), the solution of validamycin (0.3 mg/mL) and the solution of algal polysaccharides (0.15 g/mL) respectively at a dose of 13.3 mL/kg body weight. Twenty minutes after the administration, a weight of 2 g was fixed to the tail of each mouse and the mice were put into a pool to swim with load. The bath temperature was 25±2° C., and the depth was more than 30 cm. The survival time in the loaded swimming was recorded (when all parts of a mouse were under water for 10 s, the mouse was considered to be unable to rise to the surface).

[3] = after administration, 200 mL twice a day for 30 days
[4] = after administration, 13.3 mL/kg intragastric

Row | Compound | Skin moisture content (human skin; [3]) [%] | Skin moisture content (human skin; before administration) [%] | Body weight (normal mice [1]; [4]) [g] | Percentage of defecation quantity in each stage based the total defecation quantity (normal mice [1]; [4]) [%] | defecation quantity (normal mice [1]; [4]) [g] | Body weight (normal mice [1]; before administration) [g] | Percentage of defecation quantity in each stage based the total defecation quantity (normal mice [1]; before administration) [%] | defecation quantity (normal mice [1]; before administration) [g] | Blood glucose level at different time points after administration (diabetic mice; 1 week) [mmol/L] | Blood glucose level at different time points after administration (diabetic mice; 2 weeks) [mmol/L] | Blood glucose level at different time points after administration (diabetic mice; 3 weeks) [mmol/L] | Blood glucose level at different time points after administration (diabetic mice; 4 weeks) [mmol/L] | Blood glucose level at different time points after administration (diabetic mice; 5 weeks) [mmol/L] | Blood glucose level before administration (diabetic mice) [mmol/L] | effect on blood glucose level in normal people (healthy volunteers) | Survival time (normal mice [2]) [min] | also measured
1 | OC[C@H]1O[C@H](O[C@H]2O[C@H](CO)[C@@H](O)[C@H](O)[C@H]2O)[C@H](O)[C@@H](O)[C@@H]1O [trehalose] | 8.52 ± 0.55 | 8.55 ± 0.68 | 19.10 | 37.84 | 0.70 ± 0.01 | 19.80 | 62.16 | 1.15 ± 0.03 | 22.15 ± 2.14 | 24.50 ± 2.35 | 25.33 ± 2.15 | 26.47 ± 2.12 | 27.16 ± 1.01 | 18.40 ± 2.07 | significantly raised blood glucose level | 13.45 ± 2.54 | Blood glucose level after administration (healthy volunteers; 30 min): 9.3 mmol/L; Blood glucose level after administration (healthy volunteers; 60 min): 8.4 mmol/L; Blood glucose level after administration (healthy volunteers; 120 min): 7.1 mmol/L; Blood glucose level before administration (healthy volunteers): 7.0 mmol/L
2 | OCC1=C[C@H](N[C@H]2C[C@H](CO)[C@@H](O[C@@H]3O[C@H](CO)[C@@H](O)[C@H](O)[C@H]3O)[C@H](O)[C@H]2O)[C@H](O)[C@@H](O)[C@@H]1O [validamycin] | 8.35 ± 0.47 | 8.21 ± 0.98 | 19.45 | 35.26 | 0.67 ± 0.05 | 20.12 | 64.74 | 1.23 ± 0.04 | 20.20 ± 2.11 | 22.51 ± 2.28 | 23.57 ± 2.06 | 23.57 ± 1.07 | 24.01 ± 1.25 | 18.27 ± 2.13 | had not effect on the blood glucose level | 12.54 ± 1.08 | Blood glucose level after administration (healthy volunteers; 30 min, listed as Solution of validamycin): 6.3 mmol/L and 6.7 mmol/L; Blood glucose level after administration (healthy volunteers; 60 min, listed as Solution of validamycin): 6.2 mmol/L and 6.6 mmol/L; Blood glucose level after administration (healthy volunteers; 120 min, listed as Solution of validamycin): 5.9 mmol/L and 5.3 mmol/L; Blood glucose level before administration (healthy volunteers; listed as Solution of validamycin): 6.0 mmol/L and 5.3 mmol/L
